Experiment [1] deals with GST-RIPK2 fusion protein (human RIPK2 amino acids 1-310) (Homo sapiens (Human), UniProt O43353). Briefly: RIPK2 binding competition assay (TR-FRET, Tracer 199). For orientation: In TR-FRET formats the signal depends on donor and acceptor labels being close together.
The subject of experiment [2] is NF-κB pathway (SEAP) in THP1-Dual cells. Briefly: THP-1 Dual cell SEAP assay (L18-MDP stimulated). It is filed as cell-based. To be noted: Homo sapiens, THP1-Dual, read-out: NFkB THP1 IC50.
Where [3] appears, read: read-out: RIPK2 IC50, RIPK2 binding competition assay.

For 22 compounds, IC50 results are on record in patent US20250346593A1, “IMIDAZO(1,2-1)PYRIDINE DERIVATIVES AS RIPK2 INHIBITORS” (Interline Therapeutics, Inc., priority 2022, published 2025).

Read-outs that look alike come from different tables or passages of the source.

Sequence of GST-RIPK2 fusion protein (human RIPK2 amino acids 1-310) (O43353 1-310): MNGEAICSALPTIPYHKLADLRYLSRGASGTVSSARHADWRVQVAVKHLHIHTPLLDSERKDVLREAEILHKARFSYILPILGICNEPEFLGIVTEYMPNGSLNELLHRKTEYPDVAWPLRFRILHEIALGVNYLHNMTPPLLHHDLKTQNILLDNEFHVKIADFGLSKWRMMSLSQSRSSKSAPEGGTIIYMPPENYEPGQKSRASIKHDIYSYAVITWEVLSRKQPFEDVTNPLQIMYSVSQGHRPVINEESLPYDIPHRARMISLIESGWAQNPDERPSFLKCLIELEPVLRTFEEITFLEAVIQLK

One may read the IC50 as the concentration needed to halve the response being measured. As to `CCCS(=O)(=O)Nc1cc(-c2cnc3cc(OC)c(S(=O)(=O)C(C)(C)C)cn23)ccc1OC` [Example 130, N-{2-methoxy-5-[7-methoxy-6-(2-methylpropane-2-sulfonyl)imidazo[1,2-a]pyridin-3-yl]phenyl}propane-1-sulfonamide], the IC50 in experiment [1] lay within 1 to 2.5 nM; in experiment [2], 250 to 1000 nM.
For `COc1cc2ncc(-c3cc(N)c(OC(F)F)c(F)c3)n2cc1S(=O)(=O)C(C)(C)C` [Example 65, 5-(6-(tert-butylsulfonyl)-7-methoxyimidazo[1,2-a]pyridin-3-yl)-2-(difluoromethoxy)-3-fluoroaniline], in that order: 1 to 2.5 nM and 50 to 250 nM.
With `COc1cc2ncc(-c3cnc(OC)c(N)c3)n2cc1S(=O)(=O)C(C)(C)C` [Example 54, 5-(6-(tert-butylsulfonyl)-7-methoxyimidazo[1,2-a]pyridin-3-yl)-2-methoxypyridin-3-amine], the IC50 in experiment [1] (setting [3]) was greater than 20 nM; in experiment [2], greater than 1000 nM.
With `COc1cc2ncc(-c3ccc(F)c(N)c3F)n2cc1S(=O)(=O)C(C)(C)C` [Example 27, 3-(6-(tert-butylsulfonyl)-7-methoxyimidazo[1,2-a]pyridin-3-yl)-2,6-difluoroaniline], the IC50 in experiment [1] was 2.5 to 20 nM; in experiment [2] it was greater than 1000 nM.
For `COc1cc2ncc(-c3cc(F)c(OC)c(NCCCO)c3)n2cc1S(=O)(=O)C(C)(C)C` [Example 319, 3-((5-(6-(tert-butylsulfonyl)-7-methoxyimidazo[1,2-a]pyridin-3-yl)-3-fluoro-2-methoxyphenyl)amino)propan-1-ol], in that order: 1 to 2.5 nM and 50 to 250 nM.
Consider `COc1cc(NCCCO)cc(-c2cnc3cc(OC)c(S(=O)(=O)C(C)(C)C)cn23)n1` [compound 321, 3-((2-(6-(tert-butylsulfonyl)-7-methoxyimidazo[1,2-a]pyridin-3-yl)-6-methoxypyridin-4-yl)amino)propan-1-ol], for which the values for the IC50 in experiment [1] (setting [3]) and in experiment [2] were greater than 20 nM and greater than 1000 nM, respectively.
With `COc1cc2ncc(-c3cc(N)ccc3F)n2cc1S(=O)(=O)C(C)(C)C` [Example 32, 3-(6-(tert-butylsulfonyl)-7-methoxyimidazo[1,2-a]pyridin-3-yl)-4-fluoroaniline], the IC50 in experiment [1] (setting [3]) was greater than 20 nM; in experiment [2] it was greater than 1000 nM.
On the same counts, the results for `COc1cc2ncc(-c3cnn(CCCO)c3)n2cc1S(=O)(=O)C(C)(C)C` [Example 323, 3-(4-(6-(tert-butylsulfonyl)-7-methoxyimidazo[1,2-a]pyridin-3-yl)-1H-pyrazol-1-yl)propan-1-ol] are greater than 20 nM and greater than 1000 nM.
Turning to `CCCS(=O)(=O)Nc1cc(-c2cnc3cc(OC)c(S(=O)(=O)C(C)(C)C)cn23)cc(C#N)c1OC` [Example 259, N-(5-(6-(tert-butylsulfonyl)-7-methoxyimidazo[1,2-a]pyridin-3-yl)-3-cyano-2-methoxyphenyl)propane-1-sulfonamide], the half-inhibitory concentration (IC50) in experiment [1] lay within 2.5 to 20 nM; in experiment [2] it was 250 to 1000 nM.
For `COc1cc2ncc(-c3ccc(OC)c(N)c3F)n2cc1S(=O)(=O)C(C)(C)C` [Example 28, 3-(6-(tert-butylsulfonyl)-7-methoxyimidazo[1,2-a]pyridin-3-yl)-2-fluoro-6-methoxyaniline], in that order: 2.5 to 20 nM and greater than 1000 nM.
Turning to `COc1cc2ncc(-c3cc(F)cc(N)c3F)n2cc1S(=O)(=O)C(C)(C)C` [Example 38, 3-(6-(tert-butylsulfonyl)-7-methoxyimidazo[1,2-a]pyridin-3-yl)-2,5-difluoroaniline], the half-inhibitory concentration (IC50) lay within 1 to 2.5 nM in experiment [1] and 50 to 250 nM in experiment [2].
On the same counts, the results for `COc1cc2ncc(-c3cc(C)c(OC)c(NCCCO)n3)n2cc1S(=O)(=O)C(C)(C)C` [Example 311, 3-((6-(6-(tert-butylsulfonyl)-7-methoxyimidazo[1,2-a]pyridin-3-yl)-3-methoxy-4-methylpyridin-2-yl)amino)propan-1-ol] are 2.5 to 20 nM and 250 to 1000 nM.
As to `CCOc1cc2ncc(-c3ccc(N)nc3F)n2cc1S(=O)(=O)C(C)C` [Example 120, 5-[6-ethoxy-5-(isopropylsulfonyl)-1,3a-diaza-3-indenyl]-6-fluoro-2-pyridylamine], the IC50 was greater than 20 nM in experiment [1] (setting [3]) and greater than 1000 nM in experiment [2].
Take `COc1cc2ncc(-c3cc(F)c(OC)c(Br)c3)n2cc1S(=O)(=O)C(C)(C)C` [Example 305, 3-(3-bromo-5-fluoro-4-methoxyphenyl)-6-(tert-butylsulfonyl)-7-methoxyimidazo[1,2-a]pyridine]: the half-maximal inhibitory concentration (IC50) in experiment [1] is 2.5 to 20 nM; in experiment [2], greater than 1000 nM.
Regarding `COc1cc2ncc(-c3cncc(N)c3)n2cc1S(=O)(=O)C(C)(C)C` [Example 30, 5-(6-(tert-butylsulfonyl)-7-methoxyimidazo[1,2-a]pyridin-3-yl)pyridin-3-amine], the IC50 is greater than 20 nM in experiment [1] (setting [3]) and greater than 1000 nM in experiment [2].
Turning to `COc1cc2ncc(-c3cc(F)nc(NC(C)(C)CO)c3)n2cc1S(=O)(=O)C(C)(C)C` [Example 237, 2-({6-fluoro-4-[7-methoxy-6-(2-methylpropane-2-sulfonyl)imidazo[1,2-a]pyridin-3-yl]pyridin-2-yl}amino)-2-methylpropan-1-ol], the IC50 in experiment [1] fell in the range of 2.5 to 20 nM; in experiment [2], 50 to 250 nM.
On the same counts, the results for `CCCS(=O)(=O)Nc1cc(-c2cnc3cc(OC)c(S(=O)(=O)C(C)(C)C)cn23)cn(C)c1=O` [Example 124, N-(5-(6-(tert-butylsulfonyl)-7-methoxyimidazo[1,2-a]pyridin-3-yl)-1-methyl-2-oxo-1,2-dihydropyridin-3-yl)propane-1-sulfonamide] are 2.5 to 20 nM and greater than 1000 nM.
With `CCCS(=O)(=O)Nc1cc(-c2cnc3cc(OC)c(S(=O)(=O)C(C)(C)C)cn23)cnc1N` [Example 253, N-(2-amino-5-(6-(tert-butylsulfonyl)-7-methoxyimidazo[1,2-a]pyridin-3-yl)pyridin-3-yl)propane-1-sulfonamide], the results for the concentration for half-maximal inhibition (IC50) in experiment [1] (setting [3]) and in experiment [2] were greater than 20 nM and greater than 1000 nM, respectively.
For `COc1cc2ncc(-c3cc(F)c(OC)c(CCO)c3)n2cc1S(=O)(=O)C(C)(C)C` [Example 59, 2-(5-(6-(tert-butylsulfonyl)-7-methoxyimidazo[1,2-a]pyridin-3-yl)-3-fluoro-2-methoxyphenyl)ethan-1-ol], the IC50 was 2.5 to 20 nM in experiment [1] and 250 to 1000 nM in experiment [2].
On the same counts, the results for `CCCS(=O)(=O)Nc1cc(-c2cnc3cc(OC)c(S(=O)(=O)C(C)(C)C)cn23)cc(F)c1F` [Example 266, N-(5-(6-(tert-butylsulfonyl)-7-methoxyimidazo[1,2-a]pyridin-3-yl)-2,3-difluorophenyl)propane-1-sulfonamide] are 1 to 2.5 nM and 250 to 1000 nM.
On to `COc1cn2ncc(-c3ccc(N)nc3F)c2cc1S(=O)(=O)C(C)(C)C` [Example 72, 5-(5-(tert-butylsulfonyl)-6-methoxypyrazolo[1,5-a]pyridin-3-yl)-6-fluoropyridin-2-amine], for which the concentration for half-maximal inhibition (IC50) was greater than 20 nM in experiment [1] (setting [3]) and greater than 1000 nM in experiment [2].
`COc1cc2ncc(-c3cccc(NS(C)(=O)=O)c3)n2cc1S(=O)(=O)C(C)(C)C` [Example 261, N-(3-(6-(tert-butylsulfonyl)-7-methoxyimidazo[1,2-a]pyridin-3-yl)phenyl)methanesulfon-amide]: the IC50 in experiment [1] is 2.5 to 20 nM; in experiment [2], greater than 1000 nM.
